The values that follow come from ChEMBL document CHEMBL1201862, “PubChem BioAssay data set” (2004).

Calls of active or inactive are those of the source.

Assay [1] deals with T1, Fructose-bisphosphate aldolase (Mycobacterium tuberculosis, UniProt P9WQA3).
T1 sequence (P9WQA3 whole entry): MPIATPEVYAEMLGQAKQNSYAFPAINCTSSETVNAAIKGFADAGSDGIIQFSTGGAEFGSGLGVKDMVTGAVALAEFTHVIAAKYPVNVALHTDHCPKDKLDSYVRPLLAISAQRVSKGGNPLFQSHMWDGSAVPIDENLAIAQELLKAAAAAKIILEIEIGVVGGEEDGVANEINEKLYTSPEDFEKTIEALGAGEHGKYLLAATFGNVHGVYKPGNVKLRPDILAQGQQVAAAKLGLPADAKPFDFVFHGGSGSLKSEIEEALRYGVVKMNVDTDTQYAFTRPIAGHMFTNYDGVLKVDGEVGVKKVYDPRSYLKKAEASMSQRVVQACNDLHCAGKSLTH
The experiment in a line: Fluorescence-based biochemical high throughput dose response assay for inhibitors of the fructose-bisphosphate aldolase (FBA) of M. tuberculosis. The class given is functional.

Assay [2] in a line: cells. The class given is functional, cell-based.
Assay [3] has as its target T2, Nuclear receptor subfamily 0 group B member 1 (Homo sapiens, UniProt P51843).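 Note: HEK293T cells transfected with SF-1 and DAX-1 plus StAR promoter luciferase reporter.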
T2 sequence (P51843 whole entry): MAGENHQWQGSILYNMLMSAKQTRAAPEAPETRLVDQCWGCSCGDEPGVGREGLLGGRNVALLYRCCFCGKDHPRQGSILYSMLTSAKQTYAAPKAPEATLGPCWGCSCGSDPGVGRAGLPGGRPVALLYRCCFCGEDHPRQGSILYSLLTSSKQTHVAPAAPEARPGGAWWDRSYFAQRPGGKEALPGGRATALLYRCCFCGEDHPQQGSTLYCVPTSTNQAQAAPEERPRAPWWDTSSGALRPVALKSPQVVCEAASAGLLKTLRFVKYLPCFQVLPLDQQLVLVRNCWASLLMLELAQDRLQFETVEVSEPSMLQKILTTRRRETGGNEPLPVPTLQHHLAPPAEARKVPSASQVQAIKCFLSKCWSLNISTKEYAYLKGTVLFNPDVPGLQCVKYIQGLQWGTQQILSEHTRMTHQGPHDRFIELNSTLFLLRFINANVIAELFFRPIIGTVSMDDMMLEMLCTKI
Type of assay: functional, cell-based.

Assay [4] has as its target T3, Probable nicotinate-nucleotide adenylyltransferase (Staphylococcus aureus (strain N315), UniProt P65502). Type of assay: functional, Staphylococcus aureus subsp. aureus N315.
In assay [5] the target is T3, Probable nicotinate-nucleotide adenylyltransferase. Type of assay: functional, Staphylococcus aureus subsp. aureus N315. As to conditions: read-out: IC50_Mean.
The target in assay [6] is T4, Hepatocyte nuclear factor 4-alpha (Homo sapiens, UniProt P41235).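 Note: biochemical luminescence-based dose-response counterscreen measuring inhibition of HNF4 dimerization, run alongside a screen for blockers of ABHD5–perilipin-5 interaction; split luciferase complementation of HNF4 fusion proteins in cell lysate measuring dimerization.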
T4 sequence (P41235 whole entry): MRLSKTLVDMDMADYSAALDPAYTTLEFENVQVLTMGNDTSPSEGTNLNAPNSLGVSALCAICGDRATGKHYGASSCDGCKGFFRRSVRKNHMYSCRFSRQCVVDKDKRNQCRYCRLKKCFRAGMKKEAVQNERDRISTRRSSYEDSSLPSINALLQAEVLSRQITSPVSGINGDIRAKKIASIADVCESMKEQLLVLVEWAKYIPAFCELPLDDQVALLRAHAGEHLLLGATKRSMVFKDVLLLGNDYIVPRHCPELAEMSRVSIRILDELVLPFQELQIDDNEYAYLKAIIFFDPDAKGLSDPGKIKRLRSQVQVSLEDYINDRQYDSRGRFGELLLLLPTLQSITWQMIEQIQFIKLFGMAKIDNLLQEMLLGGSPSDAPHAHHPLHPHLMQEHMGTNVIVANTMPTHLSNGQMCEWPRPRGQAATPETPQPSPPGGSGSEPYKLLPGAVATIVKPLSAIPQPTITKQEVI
Type of assay: functional, cell-based.

The subject of assay [7] is Streptococcus sp. 'group A'. The experiment in a line: growth inhibition of control SK(-) GAS strain, dose response, counter-screen for streptokinase expression inhibitor project, luminescence, kanamycin, BacTiterGlo, confirmation (AID 1900). Type of assay: functional, organism-based.
Assay [8] addresses T5, Streptokinase A (Streptococcus pyogenes serotype M1, UniProt P10520).
T5 sequence (P10520 whole entry): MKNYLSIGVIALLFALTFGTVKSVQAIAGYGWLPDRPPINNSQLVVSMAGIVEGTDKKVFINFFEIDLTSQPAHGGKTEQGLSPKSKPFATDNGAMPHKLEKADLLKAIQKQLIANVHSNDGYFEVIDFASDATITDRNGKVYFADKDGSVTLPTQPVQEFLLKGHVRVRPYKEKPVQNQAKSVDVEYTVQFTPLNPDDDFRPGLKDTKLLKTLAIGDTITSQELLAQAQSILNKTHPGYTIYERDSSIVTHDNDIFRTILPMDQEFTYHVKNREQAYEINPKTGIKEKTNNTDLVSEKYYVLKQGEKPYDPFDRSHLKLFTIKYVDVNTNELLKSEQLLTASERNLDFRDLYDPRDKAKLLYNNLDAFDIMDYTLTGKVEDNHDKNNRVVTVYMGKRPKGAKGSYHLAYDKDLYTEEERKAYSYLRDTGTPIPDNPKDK
The assay is described as follows: S. pyogenes streptokinase expression inhibitors, potency, dose response, plasminogen activation absorbance, OD405 (AID 1914).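 Note: secreted streptokinase activity via plasminogen activation per viability signal from cell pellet.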 Type of assay: functional, Streptococcus pyogenes M1 GAS.

In assay [9] the test system is Streptococcus. The assay is described as follows: Group A Streptococcus viability loss, dose response, counter-screen for streptokinase expression inhibitor project, luminescence, BacTiterGlo (AID 1915).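 Note: potency for reduction of bacterial viability or growth.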 Type of assay: functional, organism-based.
In assay [10] the target is T6, Ubiquitin-conjugating enzyme E2 N (Homo sapiens, UniProt P61088).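 Note: Dose-response confirmation in a TR-FRET assay detecting UBC13-driven polyubiquitin chain formation, inhibition measured.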
T6 sequence (P61088 whole entry): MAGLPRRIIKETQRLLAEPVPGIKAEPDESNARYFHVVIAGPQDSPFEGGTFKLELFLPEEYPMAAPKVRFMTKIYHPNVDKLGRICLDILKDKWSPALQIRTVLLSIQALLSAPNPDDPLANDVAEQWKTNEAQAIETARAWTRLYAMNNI
Type of assay: functional.

In assay [11] the target is Beta-galactosidase (Escherichia coli, UniProt Q8VNN2). The assay is described as follows: beta-galactosidase enzyme inhibitors and activators, dose response, artefact control for CCR6 antagonist project, biochemical, E. coli enzyme, set 3 (AID 504712). The class given is functional.
The target of assay [12] is Beta-lactamase (Salmonella choleraesuis (strain SC-B67), UniProt Q5J463). The experiment in a line: Epi-absorbance-based counterscreen for selective VIM-2 inhibitors: dose response biochemical high throughput screening assay to identify inhibitors of TEM-1 serine-beta-lactamase.
Chain of Beta-lactamase (Salmonella choleraesuis (strain SC-B67), UniProt Q5J463) (Q5J463 whole entry): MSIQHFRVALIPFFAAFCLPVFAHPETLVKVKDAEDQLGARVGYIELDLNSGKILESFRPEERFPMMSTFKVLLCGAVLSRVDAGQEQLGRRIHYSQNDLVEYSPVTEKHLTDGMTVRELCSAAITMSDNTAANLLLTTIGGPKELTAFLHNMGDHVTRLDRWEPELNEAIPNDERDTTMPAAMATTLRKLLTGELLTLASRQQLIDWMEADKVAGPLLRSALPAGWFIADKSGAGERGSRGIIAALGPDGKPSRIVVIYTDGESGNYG
The target of assay [13] is T7, Beta-lactamase (Pseudomonas aeruginosa, UniProt Q79MP6). The experiment in a line: IMP-1 metallo-beta-lactamase inhibitors, dose response, selectivity assay for VIM-2 inhibitor project, biochemical, epi-absorbance (AID 1920).
T7 sequence (Q79MP6 whole entry): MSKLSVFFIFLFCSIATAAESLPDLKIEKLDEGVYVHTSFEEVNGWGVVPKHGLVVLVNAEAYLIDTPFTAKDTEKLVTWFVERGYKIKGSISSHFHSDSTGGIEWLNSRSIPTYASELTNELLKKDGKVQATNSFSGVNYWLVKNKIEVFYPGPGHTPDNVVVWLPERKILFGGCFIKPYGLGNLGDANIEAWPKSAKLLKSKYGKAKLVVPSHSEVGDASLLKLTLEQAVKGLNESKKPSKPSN
Assay [14] deals with T7, Beta-lactamase. The assay is described as follows: […] counterscreen for selective VIM-2 inhibitors: dose response biochemical high throughput screening assay to identify inhibitors of IMP-1 metallo-beta-lactamase.
Assay [15] is described as follows: inhibitors of clade B AD8 Env fusion, dose response, cell-based, cherry-pick (AID 652062).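 Note: luciferase signal from cell-cell fusion driven by HIV-1 clade B AD8 Env; potency is for inhibitors of fusion seen as a drop in luminescence.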 The class given is functional.
Assay [16] is described as follows: HEK293T cytotoxicity, dose response, cytotoxicity control for miR-122 modulator project, cell-based, inhibitor set, cherry-pick, set 2 (AID 720697). Type of assay: functional.
Assay [17] deals with Serine/threonine-protein kinase pim-1 (Homo sapiens, UniProt P11309). The class given is functional.
Chain of Serine/threonine-protein kinase pim-1 (P11309 whole entry): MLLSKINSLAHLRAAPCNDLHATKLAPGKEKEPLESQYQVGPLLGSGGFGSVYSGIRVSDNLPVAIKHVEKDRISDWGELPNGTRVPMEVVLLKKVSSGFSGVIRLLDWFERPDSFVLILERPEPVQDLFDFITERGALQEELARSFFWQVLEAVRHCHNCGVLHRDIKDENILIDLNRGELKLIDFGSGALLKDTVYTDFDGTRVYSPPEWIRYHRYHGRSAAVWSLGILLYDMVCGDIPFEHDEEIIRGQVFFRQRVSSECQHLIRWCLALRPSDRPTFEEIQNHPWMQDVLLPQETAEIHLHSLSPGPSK
Assay [18] deals with Cell division cycle 7-related protein kinase (Homo sapiens, UniProt O00311). Type of assay: functional.
Chain of Cell division cycle 7-related protein kinase (O00311 whole entry): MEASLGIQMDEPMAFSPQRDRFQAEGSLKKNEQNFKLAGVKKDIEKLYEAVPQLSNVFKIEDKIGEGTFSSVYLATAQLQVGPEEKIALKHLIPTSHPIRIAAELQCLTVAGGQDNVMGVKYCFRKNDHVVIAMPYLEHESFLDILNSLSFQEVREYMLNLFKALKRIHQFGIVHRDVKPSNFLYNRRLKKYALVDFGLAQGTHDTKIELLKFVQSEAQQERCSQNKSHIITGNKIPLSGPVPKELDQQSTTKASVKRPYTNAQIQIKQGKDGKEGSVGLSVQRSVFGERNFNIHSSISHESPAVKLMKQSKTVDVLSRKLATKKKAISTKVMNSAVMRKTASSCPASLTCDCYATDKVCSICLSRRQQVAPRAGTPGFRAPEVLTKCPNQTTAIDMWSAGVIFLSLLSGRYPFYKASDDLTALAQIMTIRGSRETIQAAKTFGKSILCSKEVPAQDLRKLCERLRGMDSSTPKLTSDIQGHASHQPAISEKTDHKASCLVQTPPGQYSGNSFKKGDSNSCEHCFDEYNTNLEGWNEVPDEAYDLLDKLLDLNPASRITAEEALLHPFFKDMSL
Assay [19] addresses Homeodomain-interacting protein kinase 2 (Homo sapiens, UniProt Q9H2X6). Type of assay: functional.
Assay [20] addresses T8, Interleukin-1 receptor-associated kinase 4 (Homo sapiens, UniProt Q9NWZ3).
T8 sequence (Q9NWZ3 whole entry): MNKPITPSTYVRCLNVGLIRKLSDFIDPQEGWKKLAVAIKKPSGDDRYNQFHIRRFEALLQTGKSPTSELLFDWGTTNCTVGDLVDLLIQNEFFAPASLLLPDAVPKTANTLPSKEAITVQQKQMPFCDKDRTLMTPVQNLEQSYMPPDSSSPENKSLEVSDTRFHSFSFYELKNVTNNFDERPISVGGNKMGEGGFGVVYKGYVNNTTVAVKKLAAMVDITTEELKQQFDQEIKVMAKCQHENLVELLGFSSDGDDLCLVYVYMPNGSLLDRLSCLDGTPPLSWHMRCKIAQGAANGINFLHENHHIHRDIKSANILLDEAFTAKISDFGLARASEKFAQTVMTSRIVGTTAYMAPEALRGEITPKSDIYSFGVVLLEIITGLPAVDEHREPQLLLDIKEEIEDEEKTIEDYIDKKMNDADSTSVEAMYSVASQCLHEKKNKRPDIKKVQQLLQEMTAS
The class given is functional.

In assay [21] the target is Glycogen synthase kinase-3 beta (Homo sapiens, UniProt P49841). Type of assay: functional.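 Note: value comes from a broad kinome profiling panel, with GSK3B as the panel member.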
Chain of Glycogen synthase kinase-3 beta (P49841 whole entry): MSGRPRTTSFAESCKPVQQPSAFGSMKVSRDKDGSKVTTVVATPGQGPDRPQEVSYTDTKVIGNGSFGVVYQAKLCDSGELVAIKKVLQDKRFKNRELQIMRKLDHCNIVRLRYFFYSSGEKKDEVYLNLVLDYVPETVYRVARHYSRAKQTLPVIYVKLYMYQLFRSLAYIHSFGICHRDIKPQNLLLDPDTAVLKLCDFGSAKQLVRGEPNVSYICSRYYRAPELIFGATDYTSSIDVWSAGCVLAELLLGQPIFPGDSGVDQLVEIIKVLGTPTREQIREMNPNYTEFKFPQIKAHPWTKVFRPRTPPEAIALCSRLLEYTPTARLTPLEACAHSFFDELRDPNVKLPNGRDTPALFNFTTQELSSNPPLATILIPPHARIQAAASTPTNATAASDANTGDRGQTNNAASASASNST
The target of assay [22] is cAMP-dependent protein kinase catalytic subunit alpha (Homo sapiens, UniProt P17612). Type of assay: functional.
Assay [23] concerns the target Dual specificity protein kinase CLK4 (Homo sapiens, UniProt Q9HAZ1). The class given is functional.
Assay [24] has as its target Mitogen-activated protein kinase kinase kinase kinase 4 (Homo sapiens, UniProt O95819). The class given is functional.
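Throughout, for IC50 Mean: confirmatory dose-response retesting of NadD inhibitor hits first found in an ultra-high-throughput screen.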

T3 sequence (P65502 whole entry): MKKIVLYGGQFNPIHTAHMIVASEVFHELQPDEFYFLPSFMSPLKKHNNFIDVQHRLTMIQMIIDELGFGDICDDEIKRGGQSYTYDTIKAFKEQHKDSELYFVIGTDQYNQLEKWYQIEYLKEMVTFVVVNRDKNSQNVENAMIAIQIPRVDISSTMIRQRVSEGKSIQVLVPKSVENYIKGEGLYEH
Chain of Mitogen-activated protein kinase kinase kinase kinase 4 (O95819 whole entry): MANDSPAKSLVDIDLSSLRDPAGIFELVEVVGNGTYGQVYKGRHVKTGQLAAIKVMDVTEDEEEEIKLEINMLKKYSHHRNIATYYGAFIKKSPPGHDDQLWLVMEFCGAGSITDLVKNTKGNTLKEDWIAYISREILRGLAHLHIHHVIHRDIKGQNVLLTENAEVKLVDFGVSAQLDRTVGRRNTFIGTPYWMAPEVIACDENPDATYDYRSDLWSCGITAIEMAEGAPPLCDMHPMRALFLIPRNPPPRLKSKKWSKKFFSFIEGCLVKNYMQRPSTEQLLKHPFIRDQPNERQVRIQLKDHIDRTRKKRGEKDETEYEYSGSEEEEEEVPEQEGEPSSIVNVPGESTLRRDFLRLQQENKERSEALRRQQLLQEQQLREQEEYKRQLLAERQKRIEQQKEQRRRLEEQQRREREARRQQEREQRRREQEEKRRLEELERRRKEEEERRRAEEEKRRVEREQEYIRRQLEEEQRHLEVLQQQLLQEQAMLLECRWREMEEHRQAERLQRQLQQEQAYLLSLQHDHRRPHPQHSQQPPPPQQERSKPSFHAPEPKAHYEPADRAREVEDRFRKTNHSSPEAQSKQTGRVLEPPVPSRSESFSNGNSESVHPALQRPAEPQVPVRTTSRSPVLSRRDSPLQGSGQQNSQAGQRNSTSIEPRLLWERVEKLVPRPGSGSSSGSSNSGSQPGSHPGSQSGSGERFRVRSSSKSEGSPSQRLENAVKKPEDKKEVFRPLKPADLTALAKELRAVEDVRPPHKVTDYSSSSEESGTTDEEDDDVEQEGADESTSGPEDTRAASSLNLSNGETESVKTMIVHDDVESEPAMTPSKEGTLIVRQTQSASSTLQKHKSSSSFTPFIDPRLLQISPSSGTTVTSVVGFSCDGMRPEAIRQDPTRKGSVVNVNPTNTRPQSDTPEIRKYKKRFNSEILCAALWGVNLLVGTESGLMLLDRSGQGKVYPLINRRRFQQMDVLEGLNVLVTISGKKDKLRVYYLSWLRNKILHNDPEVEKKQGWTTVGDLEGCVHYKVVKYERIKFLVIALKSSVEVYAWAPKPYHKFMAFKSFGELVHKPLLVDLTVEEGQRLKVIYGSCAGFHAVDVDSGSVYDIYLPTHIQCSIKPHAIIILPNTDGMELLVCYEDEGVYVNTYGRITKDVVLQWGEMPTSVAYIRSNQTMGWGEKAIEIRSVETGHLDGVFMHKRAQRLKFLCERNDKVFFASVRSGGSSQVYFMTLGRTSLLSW
Chain of Dual specificity protein kinase CLK4 (Q9HAZ1 whole entry): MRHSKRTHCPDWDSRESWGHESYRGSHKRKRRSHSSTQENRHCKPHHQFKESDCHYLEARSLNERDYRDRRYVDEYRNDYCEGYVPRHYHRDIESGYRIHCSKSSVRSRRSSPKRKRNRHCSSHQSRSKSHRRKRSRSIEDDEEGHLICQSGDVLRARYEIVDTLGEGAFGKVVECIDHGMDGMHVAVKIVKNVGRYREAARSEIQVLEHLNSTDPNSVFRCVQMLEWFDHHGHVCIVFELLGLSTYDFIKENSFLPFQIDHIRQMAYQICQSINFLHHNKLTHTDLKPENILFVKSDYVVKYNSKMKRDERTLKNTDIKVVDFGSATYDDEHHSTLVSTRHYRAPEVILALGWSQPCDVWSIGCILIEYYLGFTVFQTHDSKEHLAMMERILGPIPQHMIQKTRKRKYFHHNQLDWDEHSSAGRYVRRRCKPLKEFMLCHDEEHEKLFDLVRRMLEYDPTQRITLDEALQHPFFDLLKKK
Chain of Homeodomain-interacting protein kinase 2 (Q9H2X6 whole entry): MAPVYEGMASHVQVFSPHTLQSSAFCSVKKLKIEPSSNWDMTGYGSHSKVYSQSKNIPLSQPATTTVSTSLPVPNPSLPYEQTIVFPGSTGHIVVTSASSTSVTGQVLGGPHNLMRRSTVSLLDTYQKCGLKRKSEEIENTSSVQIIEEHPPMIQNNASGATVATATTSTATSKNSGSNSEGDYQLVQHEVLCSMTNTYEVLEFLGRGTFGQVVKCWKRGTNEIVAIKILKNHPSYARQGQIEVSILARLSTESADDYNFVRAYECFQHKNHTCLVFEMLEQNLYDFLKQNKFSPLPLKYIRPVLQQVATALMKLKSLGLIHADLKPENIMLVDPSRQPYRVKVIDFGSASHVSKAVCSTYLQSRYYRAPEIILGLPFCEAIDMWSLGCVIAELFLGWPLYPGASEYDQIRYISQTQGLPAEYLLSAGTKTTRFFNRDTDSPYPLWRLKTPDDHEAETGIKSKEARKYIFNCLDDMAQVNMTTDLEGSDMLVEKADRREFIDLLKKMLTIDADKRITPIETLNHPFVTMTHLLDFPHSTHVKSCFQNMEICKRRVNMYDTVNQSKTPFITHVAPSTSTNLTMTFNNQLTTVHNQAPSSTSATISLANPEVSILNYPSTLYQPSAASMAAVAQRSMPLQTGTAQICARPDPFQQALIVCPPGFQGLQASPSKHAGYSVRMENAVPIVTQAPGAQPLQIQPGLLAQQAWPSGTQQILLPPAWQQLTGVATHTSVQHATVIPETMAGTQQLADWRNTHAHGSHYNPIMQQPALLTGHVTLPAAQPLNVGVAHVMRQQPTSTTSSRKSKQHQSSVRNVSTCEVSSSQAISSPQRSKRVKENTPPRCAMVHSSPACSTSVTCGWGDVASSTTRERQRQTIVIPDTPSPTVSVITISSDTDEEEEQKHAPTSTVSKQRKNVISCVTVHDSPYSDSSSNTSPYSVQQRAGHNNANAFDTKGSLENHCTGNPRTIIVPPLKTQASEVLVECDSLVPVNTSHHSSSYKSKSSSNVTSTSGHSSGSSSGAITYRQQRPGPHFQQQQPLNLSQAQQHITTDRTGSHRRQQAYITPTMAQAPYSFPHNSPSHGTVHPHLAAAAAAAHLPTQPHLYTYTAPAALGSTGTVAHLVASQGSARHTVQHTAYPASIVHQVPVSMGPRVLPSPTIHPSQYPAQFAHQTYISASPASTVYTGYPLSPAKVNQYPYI

In the case of `COc1ccc(/C=C2\Oc3ccccc3C2=O)cc1` [4'-METHOXY-AURONE], in assay [1], the IC50 was 0.912 µM (active).

For the molecule `CCCN1CCN(CCCNC(=O)c2ccc3c(c2)NC(=O)c2ccccc2S3)CC1`, the IC50 in assay [2] and in assay [3] was > 67.5 µM (inactive) throughout.

`C#CCN(C[C@H]1[C@H](OC(=O)Nc2cccs2)[C@H](OC(=O)Nc2cccs2)C[C@H]2C(=O)N(c3ccccc3)C(=O)[C@@H]12)S(=O)(=O)c1ccc(C)cc1`: the IC50 in assay [4] was 19.9 µM (active); in assay [5] it was 34.5 µM (active).

Regarding `O=C(NCc1cccc(Cl)c1)C1=CC=CN2CCS(=O)(=O)N=C12`, the IC50 in assay [1] is 2.61 µM (active).

For `CCCCCNC(=O)C(c1ccc(C#N)cc1)n1c(=O)c(-c2ccco2)nc2ccccc21` (configuration not stated), the IC50 in assay [6] is 3.24 µM (active).

In the case of `Cc1ccc(-c2nc3ccc(Br)cn3c2Cc2ccccc2)cc1`, the IC50 in assay [2] and in assay [3] was > 67.6 µM (inactive) each time.

Consider `CC(C)Cn1c(=O)c(C(=O)Nc2ccccc2S(N)(=O)=O)c(O)c2ccccc21`, for which the EC50 is 6.34 µM (active) in assay [7], > 150 µM (not active) in assay [8] and 28.6 µM (active) in assay [9]. For the same molecule, the IC50 in [10] is > 20 µM (inactive); in [4], 8.62 µM (active); in assay [5] it was 61.2 µM (active).

In the case of `Cc1ccc(C(=O)NNC(=O)c2ccc3c(c2)OCCO3)cc1`, the IC50 in assay [2] and in assay [3] was > 67.5 µM (inactive) in each case.

On to `O=C(NC1CCCCC1)C(c1ccc(C(F)(F)F)cc1)n1c(=O)c(-c2ccco2)nc2ccccc21` (configuration not stated), for which, in [6], the IC50 is 2.41 µM (active).

As for `Cc1ccc(NC(S)=NNC(=O)Nc2ccccc2)cc1`, the IC50 in assay [11] is > 66.6 µM (inactive); in assay [2], > 67.6 µM (inactive); in [3], > 67.6 µM (inactive).

Turning to `COc1ccc2[nH]c(C(=O)O)c(CCN3C(=O)c4ccc(C(=O)O)cc4C3=O)c2c1`, the IC50 in [12], in assay [13] and in assay [14] was > 59.6 µM (inactive) in each case.

On to `COc1ccc(-c2cn3c(C)c(C(=O)Nc4cccc(NC(C)=O)c4)sc3n2)cc1`, for which the AC50 in assay [15] is 17 µM (active); in assay [16] it was 6.44 µM (active).

On to `COc1ccc(NS(=O)(=O)c2ccc(NC(=S)NC(=O)/C=C/c3ccc(C)cc3)cc2)nn1`, for which the figures for the IC50 in assay [4] and in assay [5] were 5.17 µM (active) and 39.3 µM (active), respectively.

For the molecule `Cn1cccc1-c1nc2ccccc2n1C`, the IC50 in assay [1] is 3.08 µM (active).

Take `COc1ccc(C(C(=O)NCc2ccccc2)n2c(=O)c(-c3ccco3)nc3ccccc32)cc1` (configuration not stated): the IC50 in assay [6] is 2.46 µM (active).

With `CCOc1ccc(-n2nc3ccc(N)cc3n2)cc1`, in assay [1], the IC50 is 0.716 µM (active).

For `CC(C)(C)c1ccc(-c2n[nH]c(=S)n2CCCN2CCOCC2)cc1`, the IC50 in assay [12], in assay [13] and in assay [14] was > 59.6 µM (inactive) throughout.

As for `CC(C)NC(=O)N1C[C@@H]2[C@H](c3ccccc31)[C@@H](CO)N2C(=O)c1cccnc1`, the AC50 in assay [16] is 10.1 µM (active).

As to `COc1ccc(NC(=O)C(c2ccnc3ccccc23)n2c(=O)c(-c3ccco3)nc3ccccc32)cc1` (configuration not stated), the IC50 in assay [6] was 10.9 µM (inactive).

As for `CC(C)(C)CC(=O)Nc1nnc(SCC(=O)NCc2cccs2)s1`, the IC50 in assay [12], in assay [13] and in [14] was > 59.6 µM (inactive) in each case.

As to `Fc1cccc(-c2c[nH]c3ncccc23)c1`, the Ki is 7.94 µM (active) in assay [17]; 0.0631 µM (active) in assay [18]; 1 µM (active) in [19]; 2.51 µM (active) in [20]; 2 µM (active) in [21]; 2.51 µM (active) in assay [22]. Besides, the values for the Ki in assay [23] and in [24] were 0.0398 µM (active) and 0.00316 µM (active), respectively.
